Data from PubChem BioAssay AID179 (DTP/NCI, 2004).
“And” between values parts separate entries of the source, which are not always exact repeats. Equal values may be shown once. The source made the active and inactive calls.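 The calls were made as follows: active = compounds giving half or more protection of infected cells from virus-caused growth loss, again on retest; inactive = the rest.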 Where a SMILES comes first, the peptide text is derived from it. The star is where a group is joined. Boc = CC(C)(C)OC(=O)*

Test system: CEM cells HIV-1 protection, formazan growth assay
Experiment: NCI AIDS Antiviral Assay
Details: for IC50: measured here: growth of uninfected CEM cells
Method: The ability of compounds to protect human CEM cells from HIV-1 infection is measured as a screen for new compounds capable of inhibiting the HIV virus. Five concentrations of drug were tested on uninfected and infected cells and cell growth was measured using a soluble formazan assay. […] Compounds that provided at least 50% protection were retested. Compounds that provided at least 50% protection on retest were listed as moderately active. Compounds that reproducibly provided 100% protection were listed as confirmed active. […] Note that the inability to provide protection could be due to toxicity.

SMILES | EC50 [µM] | IC50 | outcome
CCCCOC(=O)C1CC2OC2CC1C(=O)OCCOCCOC(=O)C1CC2OC2CC1C(=O)OCCCC (stereo unspecified) | > 200 | 51.3 µM | 
CC(=O)O[C@]12CCCCCC1C1(O)C(O)CCCC[C@H]12 (stereo partly specified) | > 200 | > 200 µM | 
CN=Cc1ccccc1O.CN=Cc1ccccc1O.[Cu+2] | > 200 | 11.2 µM | 
c1cc(NC2=NCCO2)c2c(c1)OCO2 | > 200 | > 200 µM | 
O=[N+]([O-])c1ccccc1S(=O)c1ccccc1 (stereo unspecified) | 6.76 | 22.4 µM | 
CCC(C)(C)c1ccc(OCCCCNC(=O)c2ccc3ccccc3c2O)c(C(C)(C)CC)c1 | > 200 | 7.41 µM | 
CCC(=O)c1ccc2c(c1)N(CCCN1CCN(CCO)CC1)c1ccccc1S2 | > 200 | 9.33 µM | 
COC(=O)C1=C(C(=O)OC)N(c2ccncc2)C(c2ccco2)=CC1c1ccccc1[N+](=O)[O-] (stereo unspecified) | > 74.1 | 7.24 µM | 
C/C(O)=C/c1nc2ccccc2n2nnnc12 | > 110 | > 110 µM | 
CCCN(CC)C(=O)COc1cc2c(O)c3c(O)c(C)c4c(c13)C(=O)C(C)(O/C=C/C(OC)C(C)C(OC(C)=O)C(C)C(O)C(C)C(O)C(C)/C=C/C=C(\C)C(=O)N2)O4 (stereo unspecified) | > 200 | 12.9 µM | 
CC(C)[Si](OC1=CCCCCC12C(=O)N(C)c1ccccc12)(C(C)C)C(C)C (stereo unspecified) | > 200 | 33.9 µM | 
COc1ccccc1NC(=O)/C(=C/n1c(=S)[nH]c2cc(C)ccc21)C(C)=O | > 200 | 151 µM | 
CC(C)(C)OC(=O)N1CCCC1C(=O)NC(c1ccccc1)c1ccccc1 (stereo unspecified) | > 200 | > 200 µM | 
CC(C)C1COC(c2ccc3ccccc3c2-c2c(O[Si](C)(C)C(C)(C)C)ccc3ccccc23)=N1 (stereo unspecified) | > 7.59 | > 7.59 µM | 
Cn1c2c(c3cc(Cl)cc(Cl)c31)-c1ncncc1CC2 | > 61.7 | > 61.7 µM | 
Cc1cc2c(C(C)C)c(O)c(O)c(C=Nc3ccccc3S)c2c(O)c1-c1c(C)cc2c(C(C)C)c(O)c(O)c(C=Nc3ccccc3S)c2c1O | > 200 | 16.2 µM | 
N#CC1Sc2ccccc2-n2cccc21 (stereo unspecified) |  |  | inactive
CC1CNC(=S)SSC(=S)N1 (stereo unspecified) | > 200 | 25.1 µM | 
COc1ccc2c(c1)CCN=C2c1ccccc1CCCCl | > 200 | 2.34 µM | 
CCOc1cc2c(cc1O)/C(=N\O)C[C@@H]1[C@@H]2CC[C@]2(C)[C@@H](O)CC[C@@H]12 | > 200 | 0.0631 µM | 
CC12CCCCC1(C)C2Sc1ccccc1 (stereo unspecified) |  |  | inactive

SMILES | EC50 [µM] | IC50 | outcome
Brc1cccc(N=NN2CCCC2)c1 | > 200 | 36.3 µM | 
CC(C)(C)OC(=O)NC(Cc1ccccc1)OCc1ccccc1 (stereo unspecified) | > 200 | 45.7 µM | 
COc1ccc2nc(NC(=O)C(=O)C(C#N)c3ccc(CC#N)cc3)sc2c1 (stereo unspecified) |  |  | inactive
CCCCc1c2c(nc3c1CCc1cc(C=O)c(N)nc1-3)/C(=C/c1ccccc1)CCC2 | > 4.37 | > 4.37 µM | 
CCOC(=O)C1C=C1C(C)(C)O (stereo unspecified) | > 151 | 135 µM | 
O=P(O)(O)c1ccc(-c2ccc(I)cc2)cc1 | > 200 | > 200 µM | 
OCCN1c2ccccc2Sc2ccc(Cl)cc21 | > 200 | 61.7 µM | 
S=c1c2ccccc2c(=S)n(-c2ccccc2)n1-c1ccccc1 | > 200 | > 200 µM | 
O=c1ccn(CC2OCC(CO)O2)c(=O)[nH]1 (stereo unspecified) | > 2750 | 1150 µM and > 2750 µM | 
COc1ccc(/C=N/n2cnc3c(sc(=S)n3-c3ccccc3)c2=O)cc1 | > 6.92 | > 6.92 µM | 
Clc1cccc(Cl)c1C1SCc2nc3cc4ccccc4cc3n21 (stereo unspecified) | > 200 | > 200 µM | 
N/N=C(/Cc1nc2ccc(C(=O)c3ccccc3)cc2[nH]c1=O)C(=O)Nc1ccc([N+](=O)[O-])cc1[N+](=O)[O-] | > 50.1 | > 50.1 µM | 
Cn1c2c(c3ccccc31)CCN1C(=O)CCC21 (stereo unspecified) | > 537 | 288 µM | 
COC1N(C2C=CC(CO)O2)C(=O)NC(=O)C1(C)Cl (stereo unspecified) | 468 | 1020 µM | 
OCC1(CO)COC2(CCCCC2)N1 | > 1230 | > 1230 µM | 
C=CC[P@@]1(=O)O[C@H](c2ccccc2)C(C)N1C(C)C (stereo partly specified) |  |  | inactive
c1ccc(N2N=NC3C4CC(C5COCC54)C32)cc1 (stereo unspecified) | > 200 | > 200 µM | 
COc1ccc(C(=O)N/N=C/c2c(C)n(C)n(-c3ccccc3)c2=O)cc1 | > 200 | > 200 µM | 
C=C1CC2(CCS(=O)(=O)c3ccccc32)OC1=O (stereo unspecified) | > 355 | 1.51 µM | 
CCCCCCCCCCCCCC/C(C(=O)OC)=C(/O)C(=O)OCC | > 91.2 | 28.8 µM | 
CC1=CC(=O)N(c2c(C)cccc2Cl)C(C)N1 (stereo unspecified) | > 1000 | > 1000 µM | 

SMILES | EC50 [µM] | IC50 | outcome
c1ccc2[nH]c3[nH]c4[nH]c5ccccc5[nH]c4[nH]c3[nH]c2c1 | > 50.1 | > 50.1 µM | 
Cc1ccc(SS(=O)(=O)c2ccc(C)cc2)cc1 | > 38 | 6.61 µM | 
CCCNC(=S)NNC(=O)CSc1nc(-c2ccccc2)c(-c2ccccc2)[nH]1 | > 117 | 57.5 µM | 
Cc1cn([C@H]2C[C@H](NC(=O)N(O)C[C@H]3O[C@@H](n4cc(C)c(=O)[nH]c4=O)C[C@@H]3O)[C@@H](CO)O2)c(=O)[nH]c1=O | > 200 | > 200 µM | 
N#Cc1cccc(-n2[nH]c(=O)ccc2=O)c1 | > 200 | > 200 µM | 
Cc1ccc2c(c1)C(=O)C1(C2)Cc2ccc(C)cc2C1=O | 191 | > 200 µM | 
O=C1CC(=O)NP(=O)(Oc2ccccc2)N1 | > 1050 | > 1050 µM | 
CN1[C@H]2C=CC(=O)[C@]1(Cl)[C@H]1C(=O)N(c3ccccc3)C(=O)[C@@H]21 | > 162 | 3.89 µM | 
CC1CCc2c(sc3ncnc(N/N=C/c4ccc(Cl)cc4)c23)C1 (stereo unspecified) | > 14.5 | > 14.5 µM | 
CCC1C(c2ccccc2O)c2cc3c(cc2OC1N1CCOCC1)OCO3 (stereo unspecified) | > 200 | 22.4 µM | 
COc1ccc(NC(=O)CC/C(CC(=O)c2ccco2)=N/NC(N)=S)cc1 |  |  | inactive
COC(=O)c1c2c(cc3c1CCC3)CCC2 | > 200 | > 200 µM | 
C/C(CN1C(=O)c2ccccc2C1=O)=N\NS(=O)(=O)c1cccc(C(=O)O)c1 | > 309 | > 309 µM | 
CN(CCSCC(N)C(=O)O)CCSCC(N)C(=O)O (stereo unspecified) | > 87.1 | > 87.1 µM | 
CCCC(=O)Oc1c(Cl)cc(C(=CCC[C@H]2CC[C@@]3(C)[C@@H](CC[C@@H]4[C@@H]3CC[C@]3(C)[C@@H]([C@H](C)CCCC(C)C)CC[C@@H]43)C2)c2cc(Cl)c(OC(=O)CCC)c(C(=O)O)c2)cc1C(=O)O | 79.4 | > 100 µM | 
CCOCN1C(=O)C2CC(/C=C/C(=O)OC)=CN2C(=O)c2ccccc21 (stereo unspecified) |  |  | inactive
CC(C)(C)c1cc2c3c(c1)C(C(F)(F)F)(C(F)(F)F)O[Te]3(C)OC2(C(F)(F)F)C(F)(F)F | > 31.6 | > 31.6 µM | 
CC1=C/C(=N\OCC(=O)O)CC(c2ccc(C(C)C)cc2)C1 (stereo unspecified) | > 200 | 97.7 µM | 
O=C1NC(=O)C(CC(C(=O)C(=O)Nc2ccccc2Cl)C(=O)c2ccc3ccccc3c2)C(=O)N1 (stereo unspecified) | > 38 | > 38 µM | 
CC1=C(/C=C/C(C)=C/C=C/C(C)=C/C=C/C=C(C)/C=C/C=C(C)/C=C/C2=C(C)C(=O)C(O)CC2(C)C)C(C)(C)CC(O)C1=O (stereo unspecified) | > 43.7 | > 43.7 µM | 
CO[C@H]1/C=C/O[C@@]2(C)Oc3c(C)c(O)c4c(O)c(c(/C=N/N5C(C)CN(Cc6ccc(C#N)cc6)CC5C)c(O)c4c3C2=O)NC(=O)/C(C)=C\C=C\[C@H](C)[C@H](O)[C@@H](C)[C@@H](O)[C@@H](C)[C@H](OC(C)=O)[C@@H]1C (stereo partly specified) | > 200 | 9.12 µM | 

SMILES | EC50 [µM] | IC50 | outcome
NNc1nnc(-c2nnc(NN)o2)o1 | > 200 | > 200 µM | 
COc1ccccc1NC(=O)CC(=O)N1N=C(c2ccccc2)C(N=Nc2ccc(Cl)cc2)C1=O (stereo unspecified) | > 74.1 | 64.6 µM | 
NC(=O)NN/C=C(/C=Nc1ccccc1)[N+](=O)[O-] | > 105 | > 105 µM | 
CC1=C(C)C2(C#N)CC(=O)N=C2O1 (stereo unspecified) | > 200 | > 200 µM | 
COc1ccc2c(ccc(=O)n2C)c1 | > 200 | > 200 µM | 
O=C(/C=C/c1ccccc1O)c1ccccc1O | > 209 | > 209 µM | 
O=S(O)CCCCCSSc1ccccc1 |  |  | inactive
CCOC(=O)C(CC)c1cc2n(c(=O)c1C#N)CCC21OCCO1 (stereo unspecified) | > 200 | > 200 µM | 
CC(c1ccccc1O)C1CCCCC1N=O (stereo unspecified) |  |  | inactive
CC1(CO)COS(=O)OC1 (stereo unspecified) | > 214 | > 214 µM | 
COC(=O)CNC(=O)C(CC(C)C)NC(=O)C(CC(C)C)NC(=O)OC(C)(C)C (stereo not drawn) (Boc-Leu-Leu-Gly-OMe; configuration not given here) |  |  | inactive
CC(C)CCC[C@@H](C)C1CCC2[C@@H]3CC=C4C[C@@H](OP(=O)([O-])OCC[N+](C)(C)C)CC[C@]4(C)C3CC[C@@]21C (stereo partly specified) | > 39.8 | 20.4 µM | 
CCOC(=O)c1c(N2CCOCC2)[nH]c(=O)c(C(c2ccco2)c2c(O)c(C(=O)OCC)c(N3CCOCC3)[nH]c2=O)c1O | > 200 | > 200 µM | 
OC(Cc1cc(CC(O)(C(F)(F)F)C(F)(F)F)nc(CC(O)(C(F)(F)F)C(F)(F)F)c1)(C(F)(F)F)C(F)(F)F | > 200 | 1.02 µM | 
CC1=C(O)/C(=C/C(C)CCC/C(C)=C/C=C/C(C)CCCc2ccoc2)OC1=O (stereo unspecified) |  |  | inactive
COc1ccc(S(=O)(=O)NNS(C)(=O)=O)cc1 | > 447 | 87.1 µM | 
COc1ccc2[nH]c3c4c(ccc3c2c1)C(=O)C=CC4=O | > 93.3 | 4.47 µM | 
Cc1ccc(S(=O)(=O)OI(O)CC(F)(F)F)cc1 | > 200 | > 200 µM | 
CC1CC(Nc2ccc(Br)cc2)N(C(=O)c2ccc(Br)cc2)O1 (stereo unspecified) | > 200 | 17 µM | 
Cc1nc(N)nc(N)c1N1CCNCC1 | > 200 | > 200 µM | 
